Source: patent US10894784B2, “Heteroarylbenzimidazole compounds” (BAYER PHARMA AKTIENGESELLSCHAFT, priority 2015, dated 2021)

Target: TBK1 (Homo sapiens (Human), UniProt Q9UHD2)
Experiment: TBK1 low ATP kinase assay (in vitro assay 1)
Format: biochemical
Details: in vitro assay 1, read-out: TBK1 low ATP kinase assay IC50

TBK1, sequence (Q9UHD2 whole entry): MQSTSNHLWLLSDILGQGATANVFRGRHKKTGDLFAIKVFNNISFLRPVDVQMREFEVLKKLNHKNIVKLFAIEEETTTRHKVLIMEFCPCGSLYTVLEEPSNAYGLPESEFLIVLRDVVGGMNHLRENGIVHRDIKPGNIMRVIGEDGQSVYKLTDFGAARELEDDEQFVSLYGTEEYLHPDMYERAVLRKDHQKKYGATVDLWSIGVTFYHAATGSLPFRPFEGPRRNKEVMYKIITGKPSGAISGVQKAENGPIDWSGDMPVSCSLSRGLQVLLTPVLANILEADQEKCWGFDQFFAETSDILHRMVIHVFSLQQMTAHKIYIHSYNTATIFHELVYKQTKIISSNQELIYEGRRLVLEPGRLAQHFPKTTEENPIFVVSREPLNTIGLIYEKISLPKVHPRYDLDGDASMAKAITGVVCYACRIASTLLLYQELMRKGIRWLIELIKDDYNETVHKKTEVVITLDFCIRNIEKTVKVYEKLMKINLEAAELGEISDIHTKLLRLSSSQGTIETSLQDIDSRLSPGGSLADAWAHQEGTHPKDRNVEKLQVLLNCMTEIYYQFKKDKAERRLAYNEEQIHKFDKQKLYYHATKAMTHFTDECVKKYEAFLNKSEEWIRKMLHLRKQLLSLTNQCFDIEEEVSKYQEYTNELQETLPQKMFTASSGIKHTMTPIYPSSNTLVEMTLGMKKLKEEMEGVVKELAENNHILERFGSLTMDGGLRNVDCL

`COCCCNc1cc(-c2ccc3nc(Nc4cc(CN5CCN(C(=O)CC(F)(F)F)CC5)ccn4)[nH]c3c2)ncn1` [Example 90.02, 3,3,3-trifluoro-1-[4-({2-[(6-{6-[(3-methoxypropyl)amino]pyrimidin-4-yl}-1H-benzimidazol-2-yl)amino]pyridin-4-yl}methyl)piperazin-1-yl]propan-1-one] and `CCc1cc(-c2ccc3nc(Nc4cc(CN5CCN(C(=O)CC(F)(F)F)CC5)ccn4)[nH]c3c2)ncn1` [Example 91.02, 1-{4-[(2-{[6-(6-ethylpyrimidin-4-yl)-1H-benzimidazol-2-yl]amino}pyridin-4-yl)methyl]piperazin-1-yl}-3,3,3-trifluoropropan-1-one] are within 1.5-fold of each other in IC50: 11 nM for the first, 12 nM for the second.

`CCc1cc(-c2ccc3nc(Nc4cc(CN5CCN(C(=O)C6CC6)CC5)ccn4)[nH]c3c2)ncn1` [Example 91.03, cyclopropyl{4-[(2-{[6-(6-ethylpyrimidin-4-yl)-1H-benzimidazol-2-yl]amino}pyridin-4-yl)methyl]piperazin-1-yl}methanone] and `CSc1cc(-c2ccc3nc(Nc4cc(CN5CCN(C(=O)C6CC6)CC5)ccn4)[nH]c3c2)ncn1` [Example 95.02, cyclopropyl(4-{[2-({6-[6-(methylsulfanyl)pyrimidin-4-yl]-1H-benzimidazol-2-yl}amino)pyridin-4-yl]methyl}piperazin-1-yl)methanone] are within 1.5-fold of each other in IC50: 13 nM for the first, 9.5 nM for the second.

First: Cc1noc(C)c1-c1cc(-c2ccc3nc(Nc4cc(CN5CCN(C(=O)OC(C)(C)C)CC5)ccn4)[nH]c3c2)ncn1 [Example 92.01, tert-butyl 4-{[2-({6-[6-(3,5-dimethyl-1,2-oxazol-4-yl)pyrimidin-4-yl]-1H-benzimidazol-2-yl}amino)pyridin-4-yl]methyl}piperazine-1-carboxylate]
Second: Cc1noc(C)c1-c1cc(-c2ccc3nc(Nc4cc(CN5CCN(C(=O)CC(F)(F)F)CC5)ccn4)[nH]c3c2)ncn1 [Example 92.02, 1-(4-{[2-({6-[6-(3,5-dimethyl-1,2-oxazol-4-yl)pyrimidin-4-yl]-1H-benzimidazol-2-yl}amino)pyridin-4-yl]methyl}piperazin-1-yl)-3,3,3-trifluoropropan-1-one]
The IC50 of the first is 5.1-fold lower: 88 nM for the first, 450 nM for the second. The first is the more potent here.

Going from `O=C(CC(F)(F)F)N1CCN(Cc2ccnc(Nc3nc4ccc(-c5cc(N6CCCC6)ncn5)cc4[nH]3)c2)CC1` [Example 93.01, 3,3,3-trifluoro-1-(4-{[2-({6-[6-(pyrrolidin-1-yl)pyrimidin-4-yl]-1H-benzimidazol-2-yl}amino)pyridin-4-yl]methyl}piperazin-1-yl)propan-1-one] to `O=C(CC(F)(F)F)N1CCN(Cc2ccnc(Nc3nc4ccc(-c5cc(N6CCOCC6)ncn5)cc4[nH]3)c2)CC1` [Example 94.01, 3,3,3-trifluoro-1-(4-{[2-({6-[6-(morpholin-4-yl)pyrimidin-4-yl]-1H-benzimidazol-2-yl}amino)pyridin-4-yl]methyl}piperazin-1-yl)propan-1-one], the IC50 rises from 2.3 nM to 7.2 nM (3.1-fold).

Going from `CSc1cc(-c2ccc3nc(Nc4cc(CN5CCN(C(=O)CC(F)(F)F)CC5)ccn4)[nH]c3c2)ncn1` [Example 95.01, 3,3,3-trifluoro-1-(4-{[2-({6-[6-(methylsulfanyl)pyrimidin-4-yl]-1H-benzimidazol-2-yl}amino)pyridin-4-yl]methyl}piperazin-1-yl)propan-1-one] to `CC(=O)c1cc(-c2ccc3nc(Nc4cc(CN5CCN(C(=O)CC(F)(F)F)CC5)ccn4)[nH]c3c2)ncn1` [Example 97.03, 1-{4-[(2-{[6-(6-acetylpyrimidin-4-yl)-1H-benzimidazol-2-yl]amino}pyridin-4-yl)methyl]piperazin-1-yl}-3,3,3-trifluoropropan-1-one], the IC50 rises from 6.6 nM to 29 nM (4.4-fold).

Compared with `CC(C)(O)c1cc(-c2ccc3nc(Nc4cc(CN5CCN(C(=O)CC(F)(F)F)CC5)ccn4)[nH]c3c2)ncn1` [Example 96.02, 3,3,3-trifluoro-1-(4-{[2-({6-[6-(2-hydroxypropan-2-yl)pyrimidin-4-yl]-1H-benzimidazol-2-yl}amino)pyridin-4-yl]methyl}piperazin-1-yl)propan-1-one], `Cc1noc(-c2ccc3nc(Nc4cc(CN5CCN(C(=O)C(C)(C)O)CC5)ccn4)[nH]c3c2)n1` [Example 101.16, 2-hydroxy-2-methyl-1-{4-[(2-{[6-(3-methyl-1,2,4-oxadiazol-5-yl)-1H-benzimidazol-2-yl]amino}pyridin-4-yl)methyl]piperazin-1-yl}propan-1-one] is 8.6-fold higher in IC50: 22 nM for the first, 190 nM for the second.

Compared with `Cc1cc(-c2ccc3nc(Nc4cc(C(C)N5CCN(C(=O)C6CC6)CC5)ccn4)[nH]c3c2Cl)ncn1` (stereo not drawn) [Example 98.03, {4-[(1R or IS)-1-(2-{[7-chloro-6-(6-methylpyrimidin-4-yl)-1H-benzimidazol-2-yl]amino}pyridin-4-yl)ethyl]piperazin-1-yl}(cyclopropyl)methanone], `CC(=O)N1CCN(Cc2ccnc(Nc3nc4ccc(-c5nc(C)no5)cc4[nH]3)c2)CC1` [Example 101.06, 1-{4-[(2-{[6-(3-methyl-1,2,4-oxadiazol-5-yl)-1H-benzimidazol-2-yl]amino}pyridin-4-yl)methyl]piperazin-1-yl}ethanone] is 13-fold higher in IC50: 76 nM for the first, 990 nM for the second. The first is the more potent here.

First: Cc1noc(-c2ccc3nc(Nc4cc(CN5CCN(C=O)CC5)ccn4)[nH]c3c2)n1 [Example 101.01, 4-[(2-{[6-(3-methyl-1,2,4-oxadiazol-5-yl)-1H-benzimidazol-2-yl]amino}pyridin-4-yl)methyl]piperazine-1-carbaldehyde]
Second: Cc1noc(-c2ccc3nc(Nc4cc(CN5CCN(c6ccccc6)CC5)ccn4)[nH]c3c2)n1 [Example 101.04, 6-(3-methyl-1,2,4-oxadiazol-5-yl)-N-{4-[(4-phenylpiperazin-1-yl)methyl]pyridin-2-yl}-1H-benzimidazol-2-amine]
The IC50 of the first is 4.4-fold lower: 680 nM for the first, 3000 nM for the second.

First: Cc1noc(-c2ccc3nc(Nc4cc(CN5CCN(c6ccccc6F)CC5)ccn4)[nH]c3c2)n1 [Example 101.02, N-(4-{[4-(2-fluorophenyl)piperazin-1-yl]methyl}pyridin-2-yl)-6-(3-methyl-1,2,4-oxadiazol-5-yl)-1H-benzimidazol-2-amine]
Second: COc1ccccc1N1CCN(Cc2ccnc(Nc3nc4ccc(-c5nc(C)no5)cc4[nH]3)c2)CC1 [Example 101.07, N-(4-{[4-(2-methoxyphenyl)piperazin-1-yl]methyl}pyridin-2-yl)-6-(3-methyl-1,2,4-oxadiazol-5-yl)-1H-benzimidazol-2-amine]
The IC50 of the first is 4-fold higher: 680 nM for the first, 170 nM for the second.

First: Cc1cccc(N2CCN(Cc3ccnc(Nc4nc5ccc(-c6nc(C)no6)cc5[nH]4)c3)CC2)c1 [Example 101.03, 6-(3-methyl-1,2,4-oxadiazol-5-yl)-N-(4-{[4-(3-methylphenyl)piperazin-1-yl]methyl}pyridin-2-yl)-1H-benzimidazol-2-amine]
Second: Cc1noc(-c2ccc3nc(Nc4cc(CN5CCN(c6cccc(F)c6)CC5)ccn4)[nH]c3c2)n1 [Example 101.09, N-(4-{[4-(3-fluorophenyl)piperazin-1-yl]methyl}pyridin-2-yl)-6-(3-methyl-1,2,4-oxadiazol-5-yl)-1H-benzimidazol-2-amine]
The IC50 of the first is 1.5-fold higher: 690 nM for the first, 460 nM for the second.

First: Cc1noc(-c2ccc3nc(Nc4cc(CN5CCN(c6ncccn6)CC5)ccn4)[nH]c3c2)n1 [Example 101.05, 6-(3-methyl-1,2,4-oxadiazol-5-yl)-N-(4-{[4-(pyrimidin-2-yl)piperazin-1-yl]methyl}pyridin-2-yl)-1H-benzimidazol-2-amine]
Second: Cc1noc(-c2ccc3nc(Nc4cc(CN5CCN(c6cnccn6)CC5)ccn4)[nH]c3c2)n1 [Example 101.13, 6-(3-methyl-1,2,4-oxadiazol-5-yl)-N-(4-{[4-(pyrazin-2-yl)piperazin-1-yl]methyl}pyridin-2-yl)-1H-benzimidazol-2-amine]
The IC50 of the first is 2.2-fold higher: 780 nM for the first, 360 nM for the second. The second is the more potent here.

First: Cc1noc(-c2ccc3nc(Nc4cc(CN5CCN(c6ccc(C(F)(F)F)cn6)CC5)ccn4)[nH]c3c2)n1 [Example 101.08, 6-(3-methyl-1,2,4-oxadiazol-5-yl)-N-[4-({4-[5-(trifluoromethyl)pyridin-2-yl]piperazin-1-yl}methyl)pyridin-2-yl]-1H-benzimidazol-2-amine]
Second: Cc1noc(-c2ccc3nc(Nc4cc(CN5CCN(c6ccccn6)CC5)ccn4)[nH]c3c2)n1 [Example 101.15, 6-(3-methyl-1,2,4-oxadiazol-5-yl)-N-(4-{[4-(pyridin-2-yl)piperazin-1-yl]methyl}pyridin-2-yl)-1H-benzimidazol-2-amine]
The IC50 of the first is higher: greater than 20000 nM for the first, 210 nM for the second.

Going from `Cc1noc(-c2ccc3nc(Nc4cc(CN5CCN(C(=O)c6ccccc6)CC5)ccn4)[nH]c3c2)n1` [Example 101.10, {4-[(2-{[6-(3-methyl-1,2,4-oxadiazol-5-yl)-1H-benzimidazol-2-yl]amino}pyridin-4-yl)methyl]piperazin-1-yl}(phenyl)methanone] to `Cc1noc(-c2ccc3nc(Nc4cc(CN5CCN(C(=O)c6ccco6)CC5)ccn4)[nH]c3c2)n1` [Example 101.14, furan-2-yl{4-[(2-{[6-(3-methyl-1,2,4-oxadiazol-5-yl)-1H-benzimidazol-2-yl]amino}pyridin-4-yl)methyl]piperazin-1-yl}methanone], the IC50 rises from 180 nM to 430 nM (2.4-fold).

Compared with `Cc1noc(-c2ccc3nc(Nc4cc(CN5CCN(c6ccc(F)cc6F)CC5)ccn4)[nH]c3c2)n1` [Example 101.11, N-(4-{[4-(2,4-difluorophenyl)piperazin-1-yl]methyl}pyridin-2-yl)-6-(3-methyl-1,2,4-oxadiazol-5-yl)-1H-benzimidazol-2-amine], `Cc1noc(-c2ccc3nc(Nc4cc(CN5CCN(c6ccncc6)CC5)ccn4)[nH]c3c2)n1` [Example 101.12, 6-(3-methyl-1,2,4-oxadiazol-5-yl)-N-(4-{[4-(pyridin-4-yl)piperazin-1-yl]methyl}pyridin-2-yl)-1H-benzimidazol-2-amine] is lower in IC50: greater than 20000 nM for the first, 450 nM for the second. The second is the more potent here.

Going from `COc1cccnc1N1CCN(Cc2ccnc(Nc3nc4ccc(-c5nc(C)no5)cc4[nH]3)c2)CC1` [Example 101.17, N-(4-{[4-(3-methoxypyridin-2-yl)piperazin-1-yl]methyl}pyridin-2-yl)-6-(3-methyl-1,2,4-oxadiazol-5-yl)-1H-benzimidazol-2-amine] to `Cc1noc(-c2ccc3nc(Nc4cc(CN5CCN(c6ccc(C#N)cc6)CC5)ccn4)[nH]c3c2)n1` [Example 101.18, 4-{4-[(2-{[6-(3-methyl-1,2,4-oxadiazol-5-yl)-1H-benzimidazol-2-yl]amino}pyridin-4-yl)methyl]piperazin-1-yl}benzonitrile], the IC50 rises from 150 nM to 1500 nM (10-fold). The first is the more potent here.
